Measured values taken from publication PMC11934087, “Rational Design of Stapled Covalent Peptide Modifiers of Oncoprotein E6 from Human Papillomavirus” (ACS Chemical Biology, 2025).
Where a SMILES comes first, the peptide text is derived from it. Bridges are numbered along the chain shown (N, C = ends). [ ]: non-standard residue; d: D form. The star is where a group is joined. 5FAM = O=C1OC2(c3ccc(O)cc3Oc3cc(O)ccc32)c2ccc(C(=O)*)cc21; S5 = C=CCCC[C@](C)(N)C(=O)O; βAla = NCCC(=O)O

Tests used:
[1] = molecular target: T1, GST-E6 (GST-tagged HPV16 E6 protein) (Human papillomavirus type 16, UniProt P03126); assay: Noncompetitive fluorescence polarization (FP) binding assay; design: species or system Human Papillomavirus (HPV-16)
T1 construct: host or cells: E. coli BL21
T1 sequence (P03126 whole entry): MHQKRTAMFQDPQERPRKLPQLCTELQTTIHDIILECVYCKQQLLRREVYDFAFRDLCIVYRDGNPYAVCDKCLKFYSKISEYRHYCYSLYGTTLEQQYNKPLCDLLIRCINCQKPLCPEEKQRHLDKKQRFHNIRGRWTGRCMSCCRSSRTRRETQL
Description: An N-terminal carboxyfluorescein was included for FP analysis of binding affinity for both the natural backbone and the stapled peptides.
For noncompetitive FP experiments, varying concentrations of GST-E6 protein (38 μM; 10 point 2-fold serial dilution) were incubated with 30 nM fluorescently labeled peptides in buffer (10 μL total volume; 50 mM Tris, 200 mM NaCl, 1 mM DTT, 0.1% [v/v] Trition X-100) in black 384-well plates. For competitive FP experiments, 100 nM GST-E6 was incubated with 30 nM fluorescently labeled noncovalent peptide and varying concentrations (20 μM; 3-fold serial dilution) of covalent peptide in buffer (20 μL) with a final DMSO content of 0.5% [v/v]. Negative control (polarization reference; 30 nM fluorescent peptide, no protein) and blank reference (buffer alone) were included in triplicate for G-factor calibration. Sample plates were centrifuged (1 min, 500g) and incubated for 30 min at RT. Following incubation, FP at equilibrium was measured on a Tecan M1000 microplate reader (ex = 470 nm, em = 525; gain optimized, 200 flashes, 300 ms settle time, G-factor reference value 30 mP). Measured polarizations were fitted to a sigmoidal dose–response curve using GraphPad Prism software to generate KD values.

bovine α-chymotrypsin = bovine α-chymotrypsin (Bos taurus, UniProt P00766); assay: in vitro; conditions: 50 μM peptide, 50 nM bovine α-chymotrypsin, pH 7.5, room temp, 4 h; HPLC
Description: (§1) Chymotrypsin was chosen due to its substrate selectivity for peptides containing hydrophobic side chains, including leucine, making the LxxLL motif a well-suited substrate for proteolytic cleavage by this protease.[54]
(§2) For each time point, a 50 μL aliquot was removed from the reaction mixture and quenched with 40 μL of 0.5% [v/v] trifluoroacetic acid in acetonitrile. Quenched samples were subsequently analyzed by analytical reverse-phase HPLC, and the remaining undigested peptide was quantified by integration of AUC. A plot of percent peptide remaining vs time was fit to a one-phase exponential decay to calculate half-life using GraphPad Prism software.

in vitro = conditions: bovine α-chymotrypsin (50 nM), pH 7.5
Description: as §1, §2

[2] = Circular dichroism spectroscopy, percent helicity; type: physicochemical; conditions: 50 μM peptide, 10 mM phosphate buffer pH 7.2, 0.5% DMSO, 20 °C
Description: To determine the secondary structure of peptides 1–11, CD was measured in an aqueous solution. […] The molar ellipticity ([θ]) at 222 nm was used to estimate the percent helicity of peptides in aqueous solutions and enable direct comparison of the helical content of peptides 1–11 (Figure 5C).[51],[52]
CD measurements were acquired on an Olis DSM17 CD spectrophotometer. Cells with a path length of 2 mm were used. Peptide solutions at 50 μM were prepared in 10 mM phosphate buffer (500 μL; pH = 7.2) containing 0.5% of DMSO, and exact concentrations were determined using fluorescein absorbance at 494 nm and a molar extinction coefficient of 82,000 cm^–1 M^–1.[59] Blank solutions of buffer without peptide were prepared for background subtraction. Scans were performed at 20 °C from 200 to 260 nm with increments of 1 nm, bandwidth of 2 nm, and a 5 s integration time. […] Helical content for peptides was calculated using a previously described method[52] that assumes that the peptide population only exists in two states, helical and random coil, and that the ellipticity contribution from the random coil population is negligible at 222 nm. […] This was calculated via the equation [θobs]222 = 43,000(1 – [x/n]), where x is the factor accounting for end effects, for which 2.5 was used, and n is the number of residues.[52]

Compound | EC50 [1] | Kd [1] | degradation by chymotrypsin within 4 h (bovine α-chymotrypsin) | half-life at 50 μM (in vitro) | Percent helicity from molar ellipticity at 222 nm (CD) [2]
CC(C)C[C@H](NC(=O)[C@H](CC(C)C)NC(=O)[C@H](CCC(=O)O)NC(=O)[C@H](CCC(N)=O)NC(=O)[C@H](CC(C)C)NC(=O)[C@@H](NC(=O)[C@H](CC(C)C)NC(=O)[C@H](CCC(=O)O)NC(=O)[C@H](C)NC(=O)[C@H](C)NC(=O)[C@H](C)NC(=O)CCNC(=O)c1ccc2c(c1)C(=O)OC21c2ccc(O)cc2Oc2cc(O)ccc21)[C@@H](C)O)C(=O)NCC(N)=O [compound 1] ({5FAM-βAla}-AAAELTLQELLG-NH2) | 2590 nM | 2590 nM | complete degradation | 47 min | 
CC(C)C[C@H](NC(=O)[C@H](CC(C)C)NC(=O)[C@H](CCC(=O)O)NC(=O)[C@]1(C)CCCC=CCCC[C@](C)(NC(=O)[C@H](C)NC(=O)[C@H](C)NC(=O)[C@H](C)NC(=O)CCNC(=O)c2ccc3c(c2)C(=O)OC32c3ccc(O)cc3Oc3cc(O)ccc32)C(=O)N[C@@H](CC(C)C)C(=O)N[C@@H]([C@@H](C)O)C(=O)N[C@@H](CC(C)C)C(=O)N1)C(=O)NCC(N)=O [compound 6] ({5FAM-βAla}-AAA[S5]LTL[S5]ELLG-NH2; staple 4-8) |  | ≥ 38000 nM |  |  | 22%
